Reference: patent US11759533B2, “Methods and compositions for modulating gene expression” (Wisconsin Alumni Research Foundation, priority 2017, dated 2023)

What was measured:
[1] = tested on: FXN protein; assay: Immunoblot for FXN protein in GM15851 cells; type: cell-based, human; details: GM15851, 24 hours, 1 μM (Agent 4: 0.1, 0.5 or 1 μM)
Protocol: (§1) In FIG. 3A, “50” refers to GM15850 cells and in FIG. 3B, “51” refers to GM15851 cells. Cells were treated as in Example 4.
(§2) Total cell extracts from cell lines were used for immunoblot analysis. Antibodies to frataxin (abcam ab110328, 1:250 dilution) or alpha-Tubulin (Cell Signaling Technologies 2144, 1:1000 dilution) were used. Signal was detected by chemiluminescence with HRP-conjugated secondary antibodies (Bio-Rad 172-1011, 1:2000 for anti-mouse frataxin and GE NA934V, 1:2000 for anti-rabbit alpha-Tubulin).

[2] = tested on: frataxin (FXN) mRNA; assay: FXN mRNA by RT-PCR (relative to TBP) in FRDA patient cell line GM15850; type: cell-based, human; details: GM15850, 1 μM, 24 hours
Protocol: Cells were maintained in RPMI 1640 supplemented with 2 mM L-glutamine and 15% fetal bovine serum (FBS) at 37° C. in a humidified atmosphere of 5% CO2. Cell density was maintained between 200,000 cells/mL and 1,000,000 cells/mL. Cell growth and morphology were monitored by phase contrast microscopy and cell viability by trypan blue exclusion. To maintain cell density, cells were passaged by centrifuging at 500 g for 3 minutes and resuspending the cells in fresh media. To avoid cross-contamination, cells were handled separately with separate bottles of media. Relevant data were obtained from cell lines passaged between P9 and P12.
To prepare agents for treatment of cells, each agent or agent mixture tested was dissolved in DMSO. […] 500,000 cells ells were seeded at 500,000 cells/mL and treated 24 h with agents in DMSO (0.1-0.2% DMSO final concentration). For the 24 hour treatment, cell media was changed immediately before treatment with agent and agent was added at the zero time point. The media was not changed during the 24 hour treatment time period.
After treatment with the agents or agent mixtures, cells were harvested and total RNA was purified with the RNeasy Mini Kit (Qiagen, Valencia, Calif.), including on-column DNase I treatment (ZYMO Research, Catalog number E1010), according to manufacturer's directions. […]

[3] = tested on: FXN protein; assay: Immunoblot for FXN protein in GM15850 cells; type: cell-based, human; details: GM15850, 24 hours, 1 μM (Agent 4: 0.1, 0.5 or 1 μM)
Protocol: as §1, §2

[4] = tested on: FXN-GAA-Luc; assay: Luciferase reporter assay, FXN-GAA-Luc line (~310 GAA repeats); type: cell-based; details: 24 hours, 2 μM unless otherwise indicated (Agent 4 at 1 or 2)
Protocol: This reporter, which includes a ˜310 GAA repeat, recapitulates both the transcriptional repression and the heterochromatin formation at the endogenous FXN locus that are hallmarks of the FRDA disease.
Cells containing FXN-Luc or FXN-GAA-Luc were seeded onto 24-well plates at a confluency of 20%. The next day, media was refreshed and cells were treated 24 hours with the indicated compound at the indicated concentration. Next, cell lysates were harvested and analyzed with the Luciferase Assay System (Promega, Madison, Wis.) per manufacturer's directions on a Synergy H4 Hybrid Reader (BioTek, Winooski, Vt.).

Cc1sc2c(c1C)C(c1ccc(Cl)cc1)=N[C@@H](CC(=O)NCCOCCOCCOCCOCCOCCOCCC(=O)NCCCN(C)CCCNC(=O)CCNC(=O)c1cc(NC(=O)c3cc(NC(=O)c4nc(NC(=O)c5cc(NC(=O)CCCNC(=O)c6nc(NC(=O)c7cc(NC(=O)c8cc(NC(=O)c9sccc9Cl)cn8C)cn7C)cn6C)cn5C)cn4C)cn3C)cn1C)c1nnc(C)n1-2 [Control Conjugate 2]
FXN protein (immunoblot) [1]: increase in FXN protein
increase in FXN mRNA levels [2]: no increase

Cc1sc2c(c1C)C(c1ccc(Cl)cc1)=N[C@@H](CC(=O)OC(C)(C)C)c1nnc(C)n1-2 [JQ1]
increase in FXN mRNA levels [2]: no increase
FXN protein (immunoblot) [3]: Neither polyamide alone (3), nor JQ1, nor the unconjugated treatment induced increased production of FXN protein
luciferase activity [4]: Significant activation was not observed
